From publication PMC6100729, “Penicillium citrinum UFV1 β-glucosidases: purification, characterization, and application for biomass saccharification” (Biotechnology for Biofuels, 2018)
Like-named read-outs stand apart in the source and are kept apart here.

Tests used:
Type in all cases: biochemical, Penicillium citrinum
[1] = test system: T1, PcβGlu2; assay: glucose release, glucose oxidase method at […] nm; settings: 50 mM sodium acetate pH 5.0, 40 °C
T1 construct: 93 kDa SDS-PAGE, 89 kDa gel filtration (abstract 95 kDa), monomer; GH3 only tentative (MS on heterogeneous fraction)

[2] = test system: T2, PcβGlu1; assay: glucose release, glucose oxidase method at […] nm; settings: 50 mM sodium acetate pH 5.0, 40 °C
T2 construct: native secreted enzyme purified from wheat-bran culture supernatant (ammonium sulfate, phenyl sepharose); 134 kDa SDS-PAGE, 258 kDa gel filtration (abstract 241 kDa), homodimer

[3] = target: T2, PcβGlu1; assay: pNPβGlu hydrolysis, p-nitrophenol release at […] nm; settings: substrate pNPβGlu, 50 mM sodium acetate pH 5.0, 40 °C
[4] = target: T1, PcβGlu2; assay: pNPβGlu hydrolysis, p-nitrophenol release at […] nm; settings: substrate pNPβGlu, 50 mM sodium acetate pH 5.0, 40 °C
[5] = test system: T2, PcβGlu1; assay: 4-methylumbelliferone fluorescence; settings: 50 mM sodium acetate pH 5.0, 40 °C
Source text: 4-methylumbelliferone fluorescence on PcβGlu1

[6] = test system: T1, PcβGlu2; assay: 4-methylumbelliferone fluorescence; settings: 50 mM sodium acetate pH 5.0, 40 °C; substrate-inhibition model
Source text: 4-methylumbelliferone fluorescence on PcβGlu2

[7] = test system: T2, PcβGlu1; assay: p-nitrophenol release at […] nm; settings: 50 mM sodium acetate pH 5.0, 40 °C
[8] = test system: T1, PcβGlu2; assay: p-nitrophenol release at […] nm; settings: 50 mM sodium acetate pH 5.0, 40 °C; substrate-inhibition model
[9] = mixed-type noncompetitive, free-enzyme constant, read-out: KIE

| SMILES | Km ([1]; substrate-inhibition model) [µM] | Km [2] [µM] | also measured |
| --- | --- | --- | --- |
| OC[C@H]1O[C@@H](O[C@H]2[C@H](O)[C@@H](O)[C@H](O[C@H]3[C@H](O)[C@@H](O)[C@H](O[C@H]4[C@H](O)[C@@H](O)[C@H](O[C@H]5[C@H](O)[C@@H](O)C(O)O[C@@H]5CO)O[C@@H]4CO)O[C@@H]3CO)O[C@@H]2CO)[C@H](O)[C@@H](O)[C@@H]1O (some centres unmarked) [Cellopentaose] | 70 ± 10 | 250 ± 20 | – |
| OC[C@H]1O[C@@H](O[C@H]2[C@H](O)[C@@H](O)C(O)O[C@@H]2CO)[C@H](O)[C@@H](O)[C@@H]1O (some centres unmarked) [cellobiose] | – | 1700 ± 100 | Ki [3, 9]: 10700 ± 100 µM; Ki [4, 9]: 3740 ± 70 µM; Km ([1]; Michaelis-Menten): 640 ± 60 µM |
| OC[C@H]1O[C@@H](OC[C@H]2OC(O)[C@H](O)[C@@H](O)[C@@H]2O)[C@H](O)[C@@H](O)[C@@H]1O (some centres unmarked) [Gentiobiose] | – | 380 ± 40 | Km ([1]; Michaelis-Menten): 620 ± 70 µM |
| OC[C@H]1OC(O)[C@H](O)[C@@H](O)[C@@H]1O (some centres unmarked) [glucose] | – | – | Ki ([3]; competitive, read-out: Ki): 1890 ± 80 µM; Ki ([4]; competitive, read-out: Ki): 880 ± 80 µM |
| CCCCCCCCO[C@@H]1O[C@H](CO)[C@@H](O)[C@H](O)[C@H]1O [Octyl-β-glucopyranoside] | 190 ± 30 | 540 ± 30 | – |
| OC[C@H]1O[C@@H](O[C@H]2[C@H](O)[C@@H](O)[C@H](O[C@H]3[C@H](O)[C@@H](O)[C@H](O[C@H]4[C@H](O)[C@@H](O)C(O)O[C@@H]4CO)O[C@@H]3CO)O[C@@H]2CO)[C@H](O)[C@@H](O)[C@@H]1O (some centres unmarked) [Cellotetraose] | 280 ± 70 | 420 ± 50 | – |
| Cc1cc(=O)oc2cc(O[C@@H]3O[C@H](CO)[C@@H](O)[C@H](O)[C@H]3O)ccc12 [MUβGlu] | – | – | Km [5]: 240 ± 10 µM; Km [6]: 14 ± 2 µM |
| OC[C@H]1O[C@@H](O[C@H]2[C@H](O)[C@@H](CO)OC(O)[C@@H]2O)[C@H](O)[C@@H](O)[C@@H]1O (some centres unmarked) [Laminaribiose] | 420 ± 30 | 330 ± 40 | – |
| O=[N+]([O-])c1ccc(O[C@@H]2O[C@H](CO)[C@@H](O)[C@H](O)[C@H]2O)cc1 [pNPβGlu] | – | – | Km [7]: 280 ± 10 µM; Km [8]: 72 ± 7 µM |
